Patent US20080260695A1, “Composition for prevention and/or treatment of cancer” (MICROBIO COMPANY LTD., priority 2007, published 2008)

Tested on: colorectal cancer cell (HT-29)
Experiment: MTT assay, relative survival rate of colorectal cancer cell line
Type: cell-based
Conditions: HT-29, 24 hours, control 100%
Experimental: The six components (fermented soy extract (Microbio Biotechnology®), oligomeric proanthocyanidin, epigallocatiechin gallate, spirulina, curcumin, and Antrodia camphorata) of Example 1 were classified to seven groups; the content of each group is listed in Table 2. Each group was respectively diluted 300×, 600×, 1200×, and 2400× with McCoy's 5a medium, and then colorectal cancer cell (HT-29, 80000 cell/well) line was treated with the diluted group A to group G. After 24 hours, the relative survival rates of the colorectal cancer cell line were detected by MTT assay. In a control group, the relative survival rate was 100%.

[1] = 300 × dilution in McCoy's 5a medium
[2] = 600 × dilution in McCoy's 5a medium
[3] = 1200 × dilution in McCoy's 5a medium
[4] = 2400 × dilution in McCoy's 5a medium

Row | Compound | Relatively survival rate (%) [1] [%] | Relatively survival rate (%) [2] [%] | Relatively survival rate (%) [3] [%] | Relatively survival rate (%) [4] [%]
1 | COc1cc(/C=C/C(=O)CC(=O)/C=C/c2ccc(O)c(OC)c2)ccc1O [Group C, curcumin] | 18 | 31 | 45 | 71
2 | epigallocatiechin gallate [Group B] | 23 | 50 | 66 | 81
